Experimental data from patent US20260015358A1, “BICYCLIC DERIVATIVES, COMPOSITIONS AND USES THEREOF” (Danatlas Pharmaceuticals Co., Ltd., priority 2023, published 2026).
pIC50: −log10 of the molar value.

Assays:
[1] = biological target: T1, WRN [UniPro: Q14191 (WRN_HUMAN), N500-C946] (Homo sapiens (Human), UniProt Q14191); test: WRN ATPase assay (ADP-Glo); format: biochemical; conditions: WRN enzymatic activity assay
[2] = biological target: T1, WRN [UniPro: Q14191 (WRN_HUMAN), N500-C946]; test: WRN unwinding assay (FORKF DNA, fluorescence); format: biochemical; conditions: Table 14

T1 sequence (Q14191 500-946): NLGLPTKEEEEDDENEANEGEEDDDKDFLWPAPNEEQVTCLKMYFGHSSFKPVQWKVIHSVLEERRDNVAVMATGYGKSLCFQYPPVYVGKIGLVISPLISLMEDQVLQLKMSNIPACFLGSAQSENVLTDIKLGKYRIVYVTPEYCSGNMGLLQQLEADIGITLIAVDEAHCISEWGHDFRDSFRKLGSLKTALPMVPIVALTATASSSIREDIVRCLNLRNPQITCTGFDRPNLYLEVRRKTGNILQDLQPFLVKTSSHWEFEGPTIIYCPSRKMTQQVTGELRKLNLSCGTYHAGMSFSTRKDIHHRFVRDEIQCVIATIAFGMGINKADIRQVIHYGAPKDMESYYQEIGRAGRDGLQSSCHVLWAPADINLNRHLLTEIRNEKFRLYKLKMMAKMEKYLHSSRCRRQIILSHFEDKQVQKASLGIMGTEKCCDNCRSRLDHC

CCc1c(N2CCN(C(=O)CNC(=O)c3cccc(O)c3F)CC2)c(=O)n2nc(C3=CCOCC3)nc2n1CC(=O)Nc1ccc(C(F)(F)F)cc1Cl [Example 293, N-(2-(4-(4-(2-((2-Chloro-4-(trifluoromethyl)phenyl)amino)-2-oxoethyl)-2-(3,6-dihydro-2H-pyran-4-yl)-5-ethyl-7-oxo-4,7-dihydro-[1,2,4]triazolo[1,5-a]pyrimidin-6-yl)piperazin-1-yl)-2-oxoethyl)-2-fluoro-3-hydroxybenzamide]
pIC50 [1]: > 7.00 | pIC50 [2]: > 7.00

CCc1c(N2CCN(C(=O)c3cnc4c(ccn4C)c3O)CC2)c(=O)n2nc(C3=CCOCC3)nc2n1CC(=O)Nc1ccc(C(F)(F)F)cc1Cl [Example 77, N-(2-Chloro-4-(trifluoromethyl)phenyl)-2-(2-(3,6-dihydro-2H-pyran-4-yl)-5-ethyl-6-(4-(4-hydroxy-1-methyl-1H-pyrrolo[2,3-b]pyridine-5-carbonyl)piperazin-1-yl)-7-oxo-[1,2,4]triazolo[1,5-a]pyrimidin-4(7H)-yl)acetamide]
pIC50 [1]: > 7.00 | pIC50 [2]: > 7.00

CCc1c(N2CCN(C(=O)CNC)CC2)c(=O)n2nc(C3=CCOCC3)nc2n1CC(=O)Nc1ccc(C(F)(F)F)cc1Cl [Example 134, N-(2-Chloro-4-(trifluoromethyl)phenyl)-2-(2-(3,6-dihydro-2H-pyran-4-yl)-5-ethyl-6-(4-(methylglycyl)piperazin-1-yl)-7-oxo-[1,2,4]triazolo[1,5-a]pyrimidin-4(7H)-yl)acetamide]
pIC50 [1]: > 7.00 | pIC50 [2]: > 7.00

CCc1c(N2CCN(C(=O)CNC(=O)c3ccco3)CC2)c(=O)n2nc(C3=CCOCC3)nc2n1CC(=O)Nc1ccc(C(F)(F)F)cc1Cl [Example 385, N-(2-(4-(4-(2-((2-Chloro-4-(trifluoromethyl)phenyl)amino)-2-oxoethyl)-2-(3,6-dihydro-2H-pyran-4-yl)-5-ethyl-7-oxo-4,7-dihydro-[1,2,4]triazolo[1,5-a]pyrimidin-6-yl)piperazin-1-yl)-2-oxoethyl)furan-2-carboxamide]
pIC50 [1]: > 7.00 | pIC50 [2]: > 7.00

CCc1c(N2CCN(C(=O)CNC(=O)c3cc(NC)c(F)cc3F)CC2)c(=O)n2nc(C3=CCOCC3)nc2n1CC(=O)Nc1ccc(C(F)(F)F)cc1F [Example 213, N-(2-(4-(2-(3,6-Dihydro-2H-pyran-4-yl)-5-ethyl-4-(2-((2-fluoro-4-(trifluoromethyl)phenyl)amino)-2-oxoethyl)-7-oxo-4,7-dihydro-[1,2,4]triazolo[1,5-a]pyrimidin-6-yl)piperazin-1-yl)-2-oxoethyl)-2,4-difluoro-5-(methylamino)benzamide]
pIC50 [1]: > 7.00 | pIC50 [2]: > 7.00

CCc1c(N2CCN(C(=O)c3cnc(C(F)(F)F)[nH]3)CC2)c(=O)n2nc(C3=CCOCC3)nc2n1CC(=O)Nc1ccc(Cl)cc1C(F)(F)F [Example 70, N-(4-Chloro-2-(trifluoromethyl)phenyl)-2-(2-(3,6-dihydro-2H-pyran-4-yl)-5-ethyl-7-oxo-6-(4-(2-(trifluoromethyl)-1H-imidazole-5-carbonyl)piperazin-1-yl)-[1,2,4]triazolo[1,5-a]pyrimidin-4(7H)-yl)acetamide]
pIC50 [1]: 6.00 to 7.00 | pIC50 [2]: 6.00 to 7.00

CCc1c(N2CCN(C(=O)Nc3[nH]ncc3C(F)(F)F)CC2)c(=O)n2nc(C3=CCOCC3)nc2n1CC(=O)Nc1ccc(C(F)(F)F)cc1Cl [Example 18, 4-(4-(2-((2-Chloro-4-(trifluoromethyl)phenyl)amino)-2-oxoethyl)-2-(3,6-dihydro-2H-pyran-4-yl)-5-ethyl-7-oxo-4,7-dihydro-[1,2,4]triazolo[1,5-a]pyrimidin-6-yl)-N-(4-(trifluoromethyl)-1H-pyrazol-5-yl)piperazine-1-carboxamide]
pIC50 [1]: 6.00 to 7.00 | pIC50 [2]: 6.00 to 7.00

CCc1c(N2CCN(C(=O)c3[nH]ncc3C(F)(F)F)CC2)c(=O)n2nc(C3=CCOCC3)nc2n1CC(=O)Nc1ccc(C(F)(F)F)cc1Cl [Example 19, N-(2-Chloro-4-(trifluoromethyl)phenyl)-2-(2-(3,6-dihydro-2H-pyran-4-yl)-5-ethyl-7-oxo-6-(4-(4-(trifluoromethyl)-1H-pyrazole-5-carbonyl)piperazin-1-yl)-[1,2,4]triazolo[1,5-a]pyrimidin-4(7H)-yl)acetamide]
pIC50 [1]: < 6.00 | pIC50 [2]: < 6.00

CCc1c(N2CCN(C(=O)c3n[nH]c(=O)[nH]c3=O)CC2)c(=O)n2nc(C3=CCOCC3)nc2n1CC(=O)Nc1ccc(C(F)(F)F)cc1Cl [Example 22, N-(2-Chloro-4-(trifluoromethyl)phenyl)-2-(2-(3,6-dihydro-2H-pyran-4-yl)-6-(4-(3,5-dioxo-2,3,4,5-tetrahydro-1,2,4-triazine-6-carbonyl)piperazin-1-yl)-5-ethyl-7-oxo-[1,2,4]triazolo[1,5-a]pyrimidin-4(7H)-yl)acetamide]
pIC50 [1]: > 7.00 | pIC50 [2]: > 7.00

CCc1c(N2CCN(C(=O)CNC(=O)c3cc(C)ns3)CC2)c(=O)n2nc(C3=CCOCC3)nc2n1CC(=O)Nc1ccc(C(F)(F)F)cc1Cl [Example 122, N-(2-(4-(4-(2-((2-Chloro-4-(trifluoromethyl)phenyl)amino)-2-oxoethyl)-2-(3,6-dihydro-2H-pyran-4-yl)-5-ethyl-7-oxo-4,7-dihydro-[1,2,4]triazolo[1,5-a]pyrimidin-6-yl)piperazin-1-yl)-2-oxoethyl)-3-methylisothiazole-5-carboxamide]
pIC50 [1]: > 7.00 | pIC50 [2]: > 7.00

CCc1c(N2CCN(C(=O)c3sc4cnccc4c3O)CC2)c(=O)n2nc(C3=CCOCC3)nc2n1CC(=O)Nc1ccc(C(F)(F)F)cc1Cl [Example 74, N-(2-Chloro-4-(trifluoromethyl)phenyl)-2-(2-(3,6-dihydro-2H-pyran-4-yl)-5-ethyl-6-(4-(3-hydroxythieno[2,3-c]pyridine-2-carbonyl)piperazin-1-y1)-7-oxo-[1,2,4]triazolo[1,5-a]pyrimidin-4(7H)-yl)acetamide]
pIC50 [1]: > 7.00 | pIC50 [2]: > 7.00

CCc1c(N2CCN(C(=O)c3ncsc3N)CC2)c(=O)n2nc(C3=CCOCC3)nc2n1CC(=O)Nc1ccc(C(F)(F)F)cc1Cl [Example 32, 2-(6-(4-(5-Aminothiazole-4-carbonyl)piperazin-1-yl)-2-(3,6-dihydro-2H-pyran-4-yl)-5-ethyl-7-oxo-[1,2,4]triazolo[1,5-a]pyrimidin-4(7H)-yl)-N-(2-chloro-4-(trifluoromethyl)phenyl)acetamide]
pIC50 [1]: 6.00 to 7.00 | pIC50 [2]: > 7.00

CCc1c(N2CCC(NC(=O)CNC(=O)c3ccccc3)CC2)c(=O)n2nc(C3=CCOCC3)nc2n1CC(=O)Nc1ccc(C(F)(F)F)cc1Cl [Example 141, N-(2-((1-(4-(2-((2-Chloro-4-(trifluoromethyl)phenyl)amino)-2-oxoethyl)-2-(3,6-dihydro-2H-pyran-4-yl)-5-ethyl-7-oxo-4,7-dihydro-[1,2,4]triazolo[1,5-a]pyrimidin-6-yl)piperidin-4-yl)amino)-2-oxoethyl)benzamide]
pIC50 [1]: < 6.00 | pIC50 [2]: < 6.00

CCc1c(N2CCN(C(=O)c3ccnc(=O)[nH]3)CC2)c(=O)n2nc(C3=CCOCC3)nc2n1CC(=O)Nc1ccc(C(F)(F)F)cc1Cl [Example 79, N-(2-Chloro-4-(trifluoromethyl)phenyl)-2-(2-(3,6-dihydro-2H-pyran-4-yl)-5-ethyl-7-oxo-6-(4-(2-oxo-2,3-dihydropyrimidine-4-carbonyl)piperazin-1-yl)-[1,2,4]triazolo[1,5-a]pyrimidin-4(7H)-yl)acetamide]
pIC50 [1]: 6.00 to 7.00 | pIC50 [2]: > 7.00

CCc1c(N2CCN(C(=O)CNC(=O)c3ccccc3F)CC2)c(=O)n2nc(SC)nc2n1CC(=O)Nc1ccc(C(F)(F)F)cc1Cl [Example 241, N-(2-(4-(4-(2-((2-Chloro-4-(trifluoromethyl)phenyl)amino)-2-oxoethyl)-5-ethyl-2-(methylthio)-7-oxo-4,7-dihydro-[1,2,4]triazolo[1,5-a]pyrimidin-6-yl)piperazin-1-yl)-2-oxoethyl)-2-fluorobenzamide]
pIC50 [1]: 6.00 to 7.00 | pIC50 [2]: 6.00 to 7.00

CCc1c(N2CCN(C(=O)c3cnn4cccc4c3O)CC2)c(=O)n2nc(C3=CCOCC3)nc2n1CC(=O)Nc1sc(C)cc1C [Example 298, 2-(2-(3,6-Dihydro-2H-pyran-4-yl)-5-ethyl-6-(4-(4-hydroxypyrrolo[1,2-b]pyridazine-3-carbonyl)piperazin-1-yl)-7-oxo-[1,2,4]triazolo[1,5-a]pyrimidin-4(7H)-yl)-N-(3,5-dimethylthiophen-2-yl)acetamide]
pIC50 [1]: > 7.00 | pIC50 [2]: > 7.00

CCc1c(N2CCN(C(=O)CNC(=O)c3cccc(O)c3)CC2)c(=O)n2nc(C3=CCOCC3)nc2n1CC(=O)Nc1ccc(C(F)(F)F)cc1Cl [Example 270, N-(2-(4-(4-(2-((2-Chloro-4-(trifluoromethyl)phenyl)amino)-2-oxoethyl)-2-(3,6-dihydro-2H-pyran-4-yl)-5-ethyl-7-oxo-4,7-dihydro-[1,2,4]triazolo[1,5-a]pyrimidin-6-yl)piperazin-1-yl)-2-oxoethyl)-3-hydroxybenzamide]
pIC50 [1]: > 7.00 | pIC50 [2]: > 7.00

CCc1c(N2CCN(C(=O)C(C)NC(=O)c3ccccc3)CC2)c(=O)n2nc(C3=CCOCC3)nc2n1CC(=O)Nc1ccc(C(F)(F)F)cc1Cl (centres unmarked) [Example 136, N-(1-(4-(4-(2-((2-Chloro-4-(trifluoromethyl)phenyl)amino)-2-oxoethyl)-2-(3,6-dihydro-2H-pyran-4-yl)-5-ethyl-7-oxo-4,7-dihydro-[1,2,4]triazolo[1,5-a]pyrimidin-6-yl)piperazin-1-yl)-1-oxopropan-2-yl)benzamide]
pIC50 [1]: > 7.00 | pIC50 [2]: 6.00 to 7.00

CCc1c(N2CCN(C(=O)CNC(=O)c3ccccc3F)CC2)c(=O)n2nc(C3=CCOCC3)nc2n1CC(=O)Nc1sc(C)cc1Br [Example 152, N-(2-(4-(4-(2-((3-bromo-5-methylthiophen-2-yl)amino)-2-oxoethyl)-2-(3,6-dihydro-2H-pyran-4-yl)-5-ethyl-7-oxo-4,7-dihydro-[1,2,4]triazolo[1,5-a]pyrimidin-6-yl)piperazin-1-yl)-2-oxoethyl)-2-fluorobenzamide]
pIC50 [1]: 6.00 to 7.00 | pIC50 [2]: > 7.00
